Source: ChEMBL document CHEMBL4837269, “Identification of 6-Hydroxypyrimidin-4(1H)-one-3-carboxamides as Potent and Orally Active APJ Receptor Agonists” (ACS Med Chem Lett, 2021)
pEC50: −log10 of the molar value.

Experiments:
[1] = target: T1, Apelin receptor (Rattus norvegicus, UniProt Q9JHG3); assay: Agonist activity at rat APJ receptor expressed in HEK293T cells assessed as compound stimulated inhibition of forskolin stimulated cAMP production incubated for 30 mins by HTRF assay; format: functional, cell-based
T1 sequence (Q9JHG3 whole entry): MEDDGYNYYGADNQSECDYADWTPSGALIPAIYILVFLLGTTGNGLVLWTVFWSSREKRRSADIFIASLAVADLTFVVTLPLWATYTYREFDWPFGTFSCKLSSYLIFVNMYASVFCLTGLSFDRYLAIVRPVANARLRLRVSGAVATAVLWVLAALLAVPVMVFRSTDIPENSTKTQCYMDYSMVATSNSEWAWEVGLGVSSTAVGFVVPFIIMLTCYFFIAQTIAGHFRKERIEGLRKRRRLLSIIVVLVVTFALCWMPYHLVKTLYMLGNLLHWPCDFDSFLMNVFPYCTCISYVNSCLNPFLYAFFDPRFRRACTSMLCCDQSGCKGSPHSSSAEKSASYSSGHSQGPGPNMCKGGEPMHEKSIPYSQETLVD

[2] = target: T2, Apelin receptor (Homo sapiens, UniProt P35414); assay: Agonist activity at human APJ receptor expressed in HEK293T cells assessed as compound stimulated inhibition of forskolin stimulated cAMP production incubated for 30 mins by HTRF assay; format: functional, cell-based
T2 sequence (P35414 whole entry): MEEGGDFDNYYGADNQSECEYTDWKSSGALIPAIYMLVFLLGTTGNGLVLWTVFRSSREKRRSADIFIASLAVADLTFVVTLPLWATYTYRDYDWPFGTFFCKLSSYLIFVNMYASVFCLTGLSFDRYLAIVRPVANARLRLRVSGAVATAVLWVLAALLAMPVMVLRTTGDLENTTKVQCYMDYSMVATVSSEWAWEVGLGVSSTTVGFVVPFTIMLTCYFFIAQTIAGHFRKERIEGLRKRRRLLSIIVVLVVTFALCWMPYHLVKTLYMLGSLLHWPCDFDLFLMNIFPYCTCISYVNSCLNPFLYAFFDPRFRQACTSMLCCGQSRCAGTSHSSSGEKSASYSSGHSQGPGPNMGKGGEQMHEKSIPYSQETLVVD

[3] = Permeability of the compound at pH 7.4 by PAMPA assay; format: ADME; details: for Papp: read-out: permeability
[4] = Metabolic stability in rat liver microsomes assessed as parent compound remaining measured after 10 mins in presence of NADPH; format: ADME, Microsome; details: for remaining at 10 min: liver microsomes, read-out: Stabilty; for Stabilty: microsomes, 10 min
[5] = Metabolic stability in human liver microsomes assessed as parent compound remaining measured after 10 mins in presence of NADPH; format: ADME, Microsome; details: for remaining at 10 min: liver microsomes, read-out: Stabilty; for percent parent compound remaining: microsomes, 10 min
[6] = Permeability of the compound at pH 5.5 by PAMPA assay; format: ADME; details: for Papp: read-out: permeability
[7] = Half life in Sprague-Dawley rat at 1 mg/kg, po via gavage measured after 48 hrs by LC/MS/MS analysis; format: ADME, organism-based; details: in vivo
[8] = Cmax in Sprague-Dawley rat at 1 mg/kg, po via gavage measured after 48 hrs by LC/MS/MS analysis; format: ADME, organism-based; parameters: route oral, time 48 hrs, dose 1 mg/kg; details: in vivo
[9] = Free drug concentration in Sprague-Dawley rat plasma; format: ADME, cell-free
[10] = AUC(0 to 24 hrs) in Sprague-Dawley rat at 1 mg/kg, po via gavage measured after 48 hrs by LC/MS/MS analysis; format: ADME, organism-based; parameters: route oral, dose 1 mg/kg, time 48 hrs; details: in vivo
[11] = system: Rattus norvegicus; assay: Hemodynamic activity in isoflurane-anesthetized Sprague-Dawley rat model of acute pressure-volume loop assessed as change in blood pressure at 10 microg/kg/min administered as iv infusion for 15 mins (reference value: -0.2 %); format: functional; details: dose 10 µg/kg/min, 0.25 h
[12] = system: Rattus norvegicus; assay: Hemodynamic activity in isoflurane-anesthetized Sprague-Dawley rat model of acute pressure-volume loop assessed as change in cardiac output at 10 microg/kg/min administered as iv infusion for 15 mins (reference value: 2.3 +/- 2.1 %); format: functional; details: dose 10 µg/kg/min, 0.25 h
[13] = system: Rattus norvegicus; assay: Hemodynamic activity in isoflurane-anesthetized Sprague-Dawley rat model of acute pressure-volume loop assessed as change in dp/dT at 10 microg/kg/min administered as iv infusion for 15 mins (reference value: 3.3 +/- […]); format: functional; details: dose 10 µg/kg/min, 0.25 h
[14] = system: Rattus norvegicus; assay: Hemodynamic activity in isoflurane-anesthetized Sprague-Dawley rat model of acute pressure-volume loop assessed as change in stroke volume at 10 microg/kg/min administered as iv infusion for 15 mins (reference value: -0.6 %); format: functional; details: dose 10 µg/kg/min, 0.25 h
[15] = system: Rattus norvegicus; assay: Hemodynamic activity in isoflurane-anesthetized Sprague-Dawley rat model of acute pressure-volume loop assessed as change in heart rate at 10 microg/kg/min administered as iv infusion for 15 mins (reference value: 3 +/- 1.6 %); format: functional; details: dose 10 µg/kg/min, 0.25 h
[16] = Protein binding in Sprague-Dawley rat plasma; format: ADME, cell-free; details: read-out: PPB (converted)

| SMILES | pEC50 [1] | pEC50 [2] | Papp [3] | remaining at 10 min [4] | remaining at 10 min [5] | Papp [6] | further results |
| --- | --- | --- | --- | --- | --- | --- | --- |
| CCCCc1[nH]c(=O)c(C(=O)NCc2ccccc2)c(O)c1-c1c(OC)cccc1OC | 5.32 | 5.96 |  |  |  |  |  |
| CCCCc1[nH]c(=O)c(C(=O)N2CC[C@H](c3ccccc3)C2)c(O)c1-c1c(OC)cccc1OC | 8.74 | 9.00 | 1.8 ×10⁻⁶ cm/s | 73% | 99% | 84 ×10⁻⁶ cm/s |  |
| CCCCc1nc(=O)c(C(=O)N2CC[C@@H](c3ccc(Cl)cn3)C2)c(O)n1-c1c(OC)cccc1OC | 10.46 | 10.57 |  | 43% | 100% |  | half-life [7]: 3.2 h; Cmax [8]: 3.2 µM; Cp(f) [9]: 0.0064 µM; AUC(0-t) at 48 h [10]: 1.9 µM·h; Activity [11]: -2.8%; Activity [12]: 11.7%; Activity [13]: 9.1%; Activity [14]: 67%; Activity [15]: 4.6%; fraction unbound [16]: 0.022 |
| CCCCc1nc(=O)c(C(=O)N2CC[C@H](c3ccccc3)C2)c(O)n1-c1c(OC)cccc1OC | 9.57 |  | 1.2 ×10⁻⁶ cm/s | 25% | 85% | 52.3 ×10⁻⁶ cm/s |  |
| CCOCc1[nH]c(=O)c(-c2nnc(Cc3ccc(C)cn3)o2)c(O)c1-c1c(OC)cccc1OC | 10.62 | 10.64 |  |  |  |  |  |
| CCCCc1nc(=O)c(C(=O)N2CC[C@H](c3ccc(Cl)cn3)C2)c(O)n1-c1c(OC)cccc1OC | 10.20 | 10.49 |  | 35% | 100% |  |  |
| CCCCc1[nH]c(=O)c(C(=O)N2CC[C@@H](c3ccccc3)C2)c(O)c1-c1c(OC)cccc1OC | 8.51 | 8.74 | 7.3 ×10⁻⁶ cm/s | 69% | 100% | 63 ×10⁻⁶ cm/s |  |
| CCCCc1nc(=O)c(C(=O)N2CCC(c3ccc(Cl)cc3)C2)c(O)n1-c1c(OC)cccc1OC (stereo in doubt; 10b) | 9.51 | 9.62 |  |  |  |  | permeability [3]: 6.3 ×10⁻⁶ cm/s; Stabilty [4]: 8%; percent parent compound remaining [5]: 90%; permeability [6]: 38 ×10⁻⁶ cm/s |
| CCCCc1nc(=O)c(C(=O)N2CCC(c3ccccn3)C2)c(O)n1-c1c(OC)cccc1OC (stereo in doubt; 11a) | 9.43 | 9.77 |  | 68% | 82% | 4.2 ×10⁻⁶ cm/s |  |
| CCCCc1nc(=O)c(C(=O)N2CCC(c3ccncc3)C2)c(O)n1-c1c(OC)cccc1OC (stereo in doubt; 13a) | 8.68 | 8.82 | 0.3 ×10⁻⁶ cm/s | 83% | 93% |  | permeability [6]: 0.9 ×10⁻⁶ cm/s |
| CCCCc1nc(=O)c(C(=O)N2CCC(c3ccncc3)C2)c(O)n1-c1c(OC)cccc1OC (stereo in doubt; 13b) | 8.40 | 8.57 |  |  |  |  | permeability [3]: 0.5 ×10⁻⁶ cm/s; Stabilty [4]: 80%; percent parent compound remaining [5]: 90%; permeability [6]: 1.9 ×10⁻⁶ cm/s |

Further lines, with some results ahead:

| pEC50 [1] | pEC50 [2] | Papp [3] | remaining at 10 min [4] | remaining at 10 min [5] | Papp [6] | SMILES | further results |
| --- | --- | --- | --- | --- | --- | --- | --- |
| 6.82 | 6.92 |  |  |  |  | CCCCc1[nH]c(=O)c(C(=O)N(CCC)Cc2ccccc2)c(O)c1-c1c(OC)cccc1OC |  |
| 5.92 | 5.96 |  |  |  |  | CCCCc1[nH]c(=O)c(C(=O)N(C)C)c(O)c1-c1c(OC)cccc1OC |  |
| 8.00 | 8.03 |  |  |  |  | CCCCc1[nH]c(=O)c(C(=O)N(C)CCc2ccc(Cl)cc2)c(O)c1-c1c(OC)cccc1OC |  |
| < 4.52 | < 4.52 |  |  |  |  | CCCCc1[nH]c(=O)c(C(=O)NCC)c(O)c1-c1c(OC)cccc1OC |  |
| 9.21 | 9.36 | 0.3 ×10⁻⁶ cm/s |  |  | 6.4 ×10⁻⁶ cm/s | CCOCc1nc(=O)c(C(=O)N2CC[C@H](c3ccccc3)C2)c(O)n1-c1c(OC)cccc1OC |  |
| 9.47 |  | 2.3 ×10⁻⁶ cm/s | 26% | 97% | 32.5 ×10⁻⁶ cm/s | CCCCc1nc(=O)c(C(=O)N2CC[C@@H](c3ccccc3)C2)c(O)n1-c1c(OC)cccc1OC |  |
| 9.77 | 9.82 | 7.4 ×10⁻⁶ cm/s | 7% | 97% | 30 ×10⁻⁶ cm/s | CCCCc1nc(=O)c(C(=O)N2CCC(c3ccc(Cl)cc3)C2)c(O)n1-c1c(OC)cccc1OC (stereo in doubt; 10a) |  |
| 9.82 | 9.92 | 0.6 ×10⁻⁶ cm/s |  |  |  | CCCCc1nc(=O)c(C(=O)N2CCC(c3ccccn3)C2)c(O)n1-c1c(OC)cccc1OC (stereo in doubt; 11b) | Stabilty [4]: 62%; permeability [6]: 7.8 ×10⁻⁶ cm/s |
| 9.48 | 9.54 |  | 65% | 82% | 2.3 ×10⁻⁶ cm/s | CCCCc1nc(=O)c(C(=O)N2CCC(c3cccnc3)C2)c(O)n1-c1c(OC)cccc1OC (stereo in doubt; 12a) |  |
| 9.40 | 9.52 | 0.1 ×10⁻⁶ cm/s |  |  |  | CCCCc1nc(=O)c(C(=O)N2CCC(c3cccnc3)C2)c(O)n1-c1c(OC)cccc1OC (stereo in doubt; 12b) | Stabilty [4]: 70%; percent parent compound remaining [5]: 89%; permeability [6]: 2.1 ×10⁻⁶ cm/s |
